Structures are written as SMILES.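 Interpolation was linear, between the two tested concentrations surrounding the appropriate level; five concentrations were tested over 48 hours in 96-well plates. GI50: concentration for 50% inhibition of growth.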 The source made the active and inactive calls. Cut-off read from the data, not from the text of the source: active = GI50 up to about 1.1 µM and inactive = higher.

Among the test systems are HT-29; Malme-3M; RPMI-8226; LOX IMVI; SN12C; DLD-1; A498; CAKI-1; MOLT-4; UACC-257; NCI-H226; A549; SF-295; HL-60; SK-MEL-2; EKVX; T47D; BT-549; NCI/ADR-RES.
Holding throughout (test): NCI anticancer screen, dose series, 48 h

For the molecule `COC1CC(O)C(OC(=O)c2ccccc2)C(C)O1` (centres undefined), the GI50 in the assay on HT-29 is > 100 µM (inactive); with Malme-3M it was > 100 µM (inactive); in the assay with RPMI-8226, > 100 µM (inactive); in the assay with LOX IMVI, > 100 µM (inactive); with SN12C it was > 100 µM (inactive); with DLD-1, > 10 µM (inactive). For the same molecule, the GI50 is > 100 µM (inactive) in the assay with A498; > 100 µM (inactive) in the assay with CAKI-1; > 100 µM (inactive) in the assay with MOLT-4; > 10 µM (inactive) in the assay on UACC-257; > 100 µM (inactive) in the assay with NCI-H226; > 100 µM (inactive) with A549. Also, the GI50 in the assay with SF-295 and in the assay with HL-60 was > 100 µM (inactive) each time.
In the case of `Cc1ccc(S(=O)(=O)OCC/C(=C\[Si](C)(C)C)c2ccccc2)cc1`, the GI50 in the assay on HT-29, in the assay with Malme-3M, in the assay on RPMI-8226, in the assay with LOX IMVI, with SN12C and with SK-MEL-2 was > 100 µM (inactive) each time. The GI50 in the assay on DLD-1, in the assay with A498, with CAKI-1, in the assay with MOLT-4, in the assay with EKVX and in the assay on UACC-257 was > 100 µM (inactive) each time. Further, the GI50 in the assay with NCI-H226 is > 100 µM (inactive); with A549 it was > 100 µM (inactive); in the assay with SF-295, > 100 µM (inactive); in the assay with HL-60 it was 91 µM (inactive).
Turning to `N#C/C(=C1\OC(=N)C(c2ccccc2)C1=O)c1ccccc1` (centres undefined), the GI50 in the assay with HT-29 is 22.5 µM (inactive); with Malme-3M, 18.9 µM (inactive); in the assay with RPMI-8226, 22.9 µM (inactive); in the assay on LOX IMVI it was 33.6 µM (inactive); with SN12C, 35 µM (inactive); in the assay with SK-MEL-2, > 52.2 µM (inactive). The GI50 in the assay on DLD-1 was 18.3 µM (inactive); in the assay on A498 it was > 100 µM (inactive); with CAKI-1, 30.6 µM (inactive); with MOLT-4, 18.7 µM (inactive); in the assay on EKVX it was 36.5 µM (inactive); in the assay with UACC-257, 23 µM (inactive). For the same molecule, the GI50 was > 64.3 µM (inactive) with NCI-H226, > 100 µM (inactive) with A549, > 100 µM (inactive) with SF-295 and 23.4 µM (inactive) in the assay on HL-60.
With `Clc1cccc(N2CCN(CCN3CCc4c([nH]c5ccccc45)C3c3cccnc3)CC2)c1` (centres undefined), the GI50 is 37 µM (inactive) in the assay with HT-29; > 66.8 µM (inactive) with Malme-3M; 30.6 µM (inactive) with RPMI-8226; > 50.2 µM (inactive) in the assay on LOX IMVI; 9.38 µM (inactive) in the assay with T47D; > 100 µM (inactive) in the assay with BT-549. In addition, the GI50 in the assay with SN12C is 43.6 µM (inactive); in the assay on NCI/ADR-RES it was > 100 µM (inactive); in the assay on SK-MEL-2 it was 61 µM (inactive); in the assay on DLD-1, 39.4 µM (inactive); in the assay on A498 it was > 100 µM (inactive); in the assay with CAKI-1 it was > 100 µM (inactive). In addition, the GI50 is > 71.6 µM (inactive) in the assay with MOLT-4; 14.5 µM (inactive) in the assay on EKVX; > 77.4 µM (inactive) in the assay on UACC-257; > 37.3 µM (inactive) with NCI-H226; > 94.6 µM (inactive) in the assay on A549; 69 µM (inactive) in the assay with SF-295. In addition, in the assay on HL-60, the GI50 is 26.3 µM (inactive).
With `O=C(CC1C(=O)Nc2ccccc2S1(=O)=O)Nc1ccc(Cl)cc1` (centres undefined), the GI50 was 29.9 µM (inactive) in the assay with HT-29; 22.7 µM (inactive) in the assay with Malme-3M; 4.84 µM (inactive) with RPMI-8226; 16.9 µM (inactive) with LOX IMVI; 34 µM (inactive) with SN12C; 21.1 µM (inactive) in the assay with SK-MEL-2. Also, the GI50 with DLD-1 was 33.5 µM (inactive); in the assay on A498, 25.8 µM (inactive); with CAKI-1, 16.5 µM (inactive); in the assay with MOLT-4, 13.5 µM (inactive); in the assay on UACC-257, 14.9 µM (inactive); with NCI-H226 it was 32.2 µM (inactive). Also, the GI50 was 31.6 µM (inactive) in the assay with A549, 45.6 µM (inactive) in the assay with SF-295 and 12.1 µM (inactive) in the assay on HL-60.
For the molecule `O=C(Nc1cc(Cl)c(Cl)cc1Cl)C(=O)C(C(=O)c1ccc(Cl)c(Cl)c1)C1OC(=O)c2ccccc21` (centres undefined), the GI50 in the assay on HT-29 is 18.5 µM (inactive); with Malme-3M it was > 10 µM (inactive); in the assay on RPMI-8226 it was 15.6 µM (inactive); with LOX IMVI it was 16.4 µM (inactive); with SN12C, 21.6 µM (inactive); with SK-MEL-2, 14 µM (inactive). The GI50 in the assay with DLD-1 was 8.47 µM (inactive); with A498, 17.2 µM (inactive); in the assay on CAKI-1, 16.1 µM (inactive); in the assay with MOLT-4, 0.187 µM (active); in the assay with EKVX, 19.6 µM (inactive); with UACC-257 it was 13.9 µM (inactive). The GI50 in the assay with NCI-H226 is 7.45 µM (inactive); in the assay with A549, 28.7 µM (inactive); in the assay with SF-295, 11.9 µM (inactive); in the assay on HL-60 it was 18 µM (inactive).
As to `CCOC(=O)C1([Se]c2ccccc2)CCCC1=O` (centres undefined), the GI50 was 37.8 µM (inactive) in the assay on HT-29; 32.6 µM (inactive) in the assay on Malme-3M; 23.3 µM (inactive) with RPMI-8226; 13.1 µM (inactive) in the assay with LOX IMVI; 15 µM (inactive) with SN12C; 32.8 µM (inactive) in the assay on SK-MEL-2. Besides, the GI50 was 16.6 µM (inactive) in the assay with DLD-1; > 100 µM (inactive) with A498; 44.5 µM (inactive) in the assay on CAKI-1; 22.3 µM (inactive) with MOLT-4; 23.6 µM (inactive) in the assay on EKVX; 43.7 µM (inactive) in the assay on UACC-257. The GI50 in the assay with NCI-H226 was 29 µM (inactive); in the assay with A549, 32.7 µM (inactive); with SF-295, 31.8 µM (inactive); with HL-60, 4.78 µM (inactive).
On to `O=C(N/N=C/c1cccc(F)c1)c1ccncc1`, for which the GI50 in the assay on HT-29, in the assay on Malme-3M, with RPMI-8226, in the assay with LOX IMVI, in the assay on SN12C and in the assay with SK-MEL-2 was > 100 µM (inactive) in each case. The GI50 with DLD-1 was > 100 µM (inactive); with A498, > 100 µM (inactive); with CAKI-1, > 10 µM (inactive); in the assay on MOLT-4, > 100 µM (inactive); in the assay with UACC-257, > 100 µM (inactive); in the assay with NCI-H226, 0.056 µM (active). Further, the GI50 in the assay on A549, in the assay on SF-295 and in the assay on HL-60 was > 100 µM (inactive) throughout.
With `CN1CCc2cc3c4cc2C1Cc1ccc(cc1)Oc1cc(ccc1O)CC1c2c(cc(O)c(c2O4)O3)CCN1C` (centres undefined), the GI50 was 2.8 µM (inactive) in the assay with HT-29; 1.81 µM (inactive) in the assay on Malme-3M; 1.64 µM (inactive) with RPMI-8226; 1.66 µM (inactive) with LOX IMVI; 3.63 µM (inactive) in the assay on SN12C; 1.67 µM (inactive) in the assay on SK-MEL-2. In addition, the GI50 in the assay on DLD-1 was 3.3 µM (inactive); in the assay with A498, > 10 µM (inactive); in the assay on CAKI-1, 10.5 µM (inactive); with MOLT-4, 2.03 µM (inactive); in the assay on EKVX it was 7.08 µM (inactive); with UACC-257, 1.95 µM (inactive). Further, the GI50 in the assay with NCI-H226 was 2.07 µM (inactive); in the assay with A549, 2.45 µM (inactive); with SF-295 it was 1.56 µM (inactive); in the assay with HL-60, 4.65 µM (inactive).
For `O=C(NC1CC1)c1c(O)[nH]c(=S)[nH]c1=O`, the GI50 with HT-29, in the assay with Malme-3M, with RPMI-8226, in the assay with LOX IMVI, in the assay on SN12C and in the assay with SK-MEL-2 was > 100 µM (inactive) in each case. Also, the GI50 in the assay on DLD-1, in the assay with A498, in the assay with CAKI-1, in the assay on MOLT-4, in the assay with UACC-257 and in the assay with NCI-H226 was > 100 µM (inactive) in each case. Besides, the GI50 with A549, in the assay on SF-295 and in the assay on HL-60 was > 100 µM (inactive) in each case.
Regarding `Nc1nc(Cl)cc(NCC(O)CO)n1` (centres undefined), the GI50 with HT-29, in the assay on Malme-3M, in the assay with RPMI-8226, with LOX IMVI, in the assay with SN12C and in the assay with SK-MEL-2 was > 100 µM (inactive) in each case. Further, the GI50 in the assay with DLD-1, in the assay on A498, with MOLT-4, with EKVX, in the assay with UACC-257 and in the assay with NCI-H226 was > 100 µM (inactive) each time. The GI50 in the assay with A549, in the assay with SF-295 and in the assay on HL-60 was > 100 µM (inactive) in each case.
Turning to `CC1(c2cccc(C3CC4(CCC3=O)OCCCCO4)c2)OCCO1` (centres undefined), the GI50 in the assay on HT-29, with Malme-3M, in the assay with RPMI-8226, in the assay with LOX IMVI, with SN12C and in the assay with SK-MEL-2 was > 100 µM (inactive) each time. Moreover, the GI50 in the assay with DLD-1, in the assay with A498, with CAKI-1, in the assay on MOLT-4, with UACC-257 and in the assay on NCI-H226 was > 100 µM (inactive) in each case. Moreover, the GI50 in the assay with A549, in the assay on SF-295 and in the assay on HL-60 was > 100 µM (inactive) throughout.
Regarding `CCc1c(OC(C)=O)c2c(NC3OCC(OC(C)=O)C(OC(C)=O)C3OC(C)=O)nc(SC)nc2oc1=O` (centres undefined), the GI50 in the assay with HT-29, in the assay on Malme-3M, with RPMI-8226, with LOX IMVI, in the assay with SN12C and in the assay on SK-MEL-2 was > 100 µM (inactive) each time. Besides, the GI50 in the assay with DLD-1, in the assay on A498, in the assay on CAKI-1, with MOLT-4, with EKVX and in the assay with UACC-257 was > 100 µM (inactive) in each case. In addition, the GI50 with NCI-H226, in the assay on A549, in the assay with SF-295 and with HL-60 was > 100 µM (inactive) each time.
